Test results reported in patent publication US20240383904A1, “HETEROCYCLIC COMPOUNDS” (Hoffmann-La Roche Inc., priority 2021, published 2024).

Target: T1, MAGL (Homo sapiens, UniProt Q99685)
T1 sequence (Q99685 1-303): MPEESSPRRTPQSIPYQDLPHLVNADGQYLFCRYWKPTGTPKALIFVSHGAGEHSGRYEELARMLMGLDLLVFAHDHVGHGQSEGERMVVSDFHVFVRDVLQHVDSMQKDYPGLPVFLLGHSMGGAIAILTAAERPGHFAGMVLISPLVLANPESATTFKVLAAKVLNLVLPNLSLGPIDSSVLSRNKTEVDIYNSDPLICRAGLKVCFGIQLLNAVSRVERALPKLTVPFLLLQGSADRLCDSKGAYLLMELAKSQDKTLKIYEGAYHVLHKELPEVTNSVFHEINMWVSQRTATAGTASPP
Test: 2-AG assay: MAGL inhibitory activity by hydrolysis of 2-arachidonoylglycerol to arachidonic acid, followed by mass spectrometry
Assay type: biochemical

[1] = 15 min preincubation, 30 min reaction at RT, 8 μM 2-arachidonoylglycerol

Row | Structure (SMILES) | IC50 [1] [nM] | IC50 (unit nM) [nM]
1 | CS(=O)(=O)c1cc(CC2CC3(C2)CN(C(=O)N2CC4(CCC(=O)N4)C2)C3)ccc1C(F)(F)F [Example 40, 2-[6-[3-mesyl-4-(trifluoromethyl)benzyl]-2-azaspiro[3.3]heptane-2-carbonyl]-2,5-diazaspiro[3.4]octan-6-one] | 3.04 | 
2 | N#Cc1cc(C(F)(F)F)ncc1CC1CCC2(C1)CN(C(=O)N1CC3(COC(=O)N3)C1)C2 (centres unmarked) [Example 210, 5-[[2-(6-oxo-7-oxa-2,5-diazaspiro[3.4]octane-2-carbonyl)-2-azaspiro[3.4]octan-6-yl]methyl]-2-(trifluoromethyl)pyridine-4-carbonitrile] | 0.84 | 
3 | O=C1NCC2(CN(C(=O)N3CCC4(CC3)CN(Cc3ccc(C(F)(F)F)cc3F)C4)C2)N1 [Example 93, 2-[2-[2-fluoro-4-(trifluoromethyl)benzyl]-2,7-diazaspiro[3.5]nonane-7-carbonyl]-2,5,7-triazaspiro[3.4]octan-6-one] | 142 | 
4 | O=C1CCC2(CN(C(=O)N3CC4(CC(Cc5nccc(C(F)(F)F)n5)C4)C3)C2)N1 [Example 327, 2-[6-[[4-(trifluoromethyl)pyrimi-din-2-yl]methyl]-2-azaspiro[3.3]heptane-2-carbonyl]-2,5-diazaspiro[3.4]octan-6-one] | 7.57 | 
5 | O=C1CCC2(CN(C(=O)N3CC4(CCN(Cc5ccc(C(F)(F)F)nc5)C4)C3)C2)N1 [Example 152, 2-[7-[[6-(trifluoromethyl)-3-pyridyl]methyl]-2,7-diazaspiro[3.4]octane-2-carbonyl]-2,5-diazaspiro[3.4]octan-6-one] | 3.07 | 
6 | N#Cc1cc(CC2CC3(C2)CN(C(=O)N2CC4(CCC(=O)N4)C2)C3)cc(C(F)(F)F)c1 [Example 217, 3-[[2-(6-oxo-2,5-diazaspiro[3.4]octane-2-carbonyl)-2-azaspiro[3.3]heptan-6-yl]methyl]-5-(trifluoromethyl)benzoni-trile] | 0.78 | 
7 | N=[S@@](=O)(c1cccc(CC2CC3(C2)CN(C(=O)N2CC4(COC(=O)N4)C2)C3)c1)C(F)(F)F [Example 357, 2-[6-[3-(trifluoromethylsulfoni-midoyl)benzyl]-2-azaspiro[3.3]heptane-2-carbonyl]-7-oxa-2,5-diazaspiro[3.4]octan-6-one] | 0.15 | 
8 | CS(=O)(=O)c1ccc(CC2CC3(C2)CN(C(=O)N2CC4(COC(=O)N4)C2)C3)cc1 [Example 13, 2-[6-(4-mesylbenzyl)-2-azaspiro[3.3]heptane-2-carbonyl]-7-oxa-2,5-diazaspiro[3.4]octan-6-one] | 0.93 | 
9 | O=C1CCC2(CN(C(=O)N3CC4(CC(Cc5cn(C6CC6)nc5C(F)(F)F)C4)C3)C2)N1 [Example 324] | 3.35 | 
10 | O=C1NC2(CO1)CN(C(=O)N1CC3(CC(Cc4ccc(C(F)(F)F)cc4F)C3)C1)C2 [Example 24, 2-[6-[2-fluoro-4-(trifluoromethyl)benzyl]-2-azaspiro[3.3]heptane-2-carbonyl]-7-oxa-2,5-diazaspiro[3.4]octan-6-one] |  | < 5
11 | NC(=O)c1cc(CC2CC3(C2)CN(C(=O)N2CC4(COC(=O)N4)C2)C3)ccc1OC(F)(F)F [Example 245, 5-[[2-(6-oxo-7-oxa-2,5-diazaspiro[3.4]octane-2-carbonyl)-2-azaspiro[3.3]heptan-6-yl]methyl]-2-(trifluoromethoxy)benz-amide] | 1.51 | 
12 | Cc1cc(C(F)F)n(CC2CC3(C2)CN(C(=O)N2CC4(COCC(=O)N4)C2)C3)n1 [Example 364, 2-[6-[[5-(difluoromethyl)-3-methyl-pyrazol-1-yl]methyl]-2-azaspiro[3.3]heptane-2-carbonyl]-8-oxa-2,5-diazaspiro[3.5]nonan-6-one] | 27.2 | 
13 | N#Cc1ccc(OC2CC3(C2)CN(C(=O)N2CC4(CCC(=O)N4)C2)C3)cc1C(F)(F)F [Example 301, 4-[[2-(6-oxo-2,5-diazaspiro[3.4]octane-2-carbonyl)-2-azaspiro[3.3]heptan-6-yl]oxy]-2-(trifluoromethyl)benzoni-trile] | 15.4 | 
14 | Cn1cc(OC2CC3(C2)CN(C(=O)N2CC4(CCC(=O)N4)C2)C3)c(C(F)(F)F)n1 [Example 310, 2-[6-[1-methyl-3-(trifluoromethyl)pyrazol-4-yl]oxy-2-azaspiro[3.3]heptane-2-carbonyl]-2,5-diazaspiro[3.4]octan-6-one] | 76.9 | 
15 | O=C1CCC2(CN(C(=O)N3CC4(CCC(Nc5cnc(C(F)(F)F)cn5)CC4)C3)C2)N1 [Example 129, 2-[7-[[5-(trifluoromethyl)pyrazin-2-yl]amino]-2-azaspiro[3.5]nonane-2-carbonyl]-2,5-diazaspiro[3.4]octan-6-one] | 66.7 | 
16 | O=C1NC2(CO1)CN(C(=O)N1CC3(CCC(Cc4ccc(C(F)(F)F)cn4)C3)C1)C2 (centres unmarked) [Example 46, 2-[6-[[5-(trifluoromethyl)-2-pyridyl]methyl]-2-azaspiro[3.4]octane-2-carbonyl]-7-oxa-2,5-diazaspiro[3.4]octan-6-one] | 0.15 | 

Row | Structure (SMILES) | IC50 [1] [nM] | IC50 (unit nM) [nM]
17 | O=C1NC2(CO1)CN(C(=O)N1CC3(CCC(NS(=O)(=O)c4cccc(OC(F)(F)F)c4)CC3)C1)C2 [Example 114, N-[2-(6-keto-7-oxa-2,5-diazaspiro[3.4]octane-2-carbonyl)-2-azaspiro[3.5]nonan-7-yl]-3-(trifluoromethoxy)benzene-sulfonamide] | 0.63 | 
18 | O=C1CCC2(CN(C(=O)N3CC4(CC(Cc5cc(C(F)(F)F)c[nH]c5=O)C4)C3)C2)N1 [Example 329, 2-[6-[[2-keto-5-(trifluoromethyl)-1H-pyridin-3-yl]methyl]-2-azaspiro[3.3]heptane-2-carbonyl]-2,5-diazaspiro[3.4]octan-6-one] | 16.1 | 
19 | O=C1COCC2(CN(C(=O)N3CC4(CC(Cn5cc(C(F)(F)F)cn5)C4)C3)C2)N1 [Example 230, 2-[6-[[4-(trifluoromethyl)pyrazol-1-yl]methyl]-2-azaspiro[3.3]heptane-2-carbonyl]-8-oxa-2,5-diazaspiro[3.5]nonan-6-one] | 59 | 
20 | CS(=O)(=O)c1cc(F)cc(CC2CC3(C2)CN(C(=O)N2CC4(COC(=O)N4)C2)C3)c1 [Example 30, 2-[6-(3-fluoro-5-mesyl-benzyl)-2-azaspiro[3.3]heptane-2-carbonyl]-7-oxa-2,5-diazaspiro[3.4]octan-6-one] | 0.45 | 
21 | O=C1NC2(CO1)CN(C(=O)N1CC3(CCC(Cc4ccc(C(F)(F)F)cn4)CC3)C1)C2 [Example 61, 2-[7-[[5-(trifluoromethyl)-2-pyridyl]methyl]-2-azaspiro[3.5]nonane-2-carbonyl]-7-oxa-2,5-diazaspiro[3.4]octan-6-one] | 0.19 | 
22 | O=C1CCC2(CN(C(=O)N3CC4(CC[C@H](Cc5ccc(S(=O)(=O)C(F)(F)F)cc5)C4)C3)C2)N1 [Example 221, 2-[(6R)-6-[[4-(trifluoromethylsulfonyl)phenyl]methyl]-2-azaspiro[3.4]octane-2-carbonyl]-2,5-diazaspiro[3.4]octan-6-one] | 1.31 | 
23 | O=C1NC2(CO1)CN(C(=O)N1CC3(CCC(Cc4ccc(C(F)(F)F)nc4)C3)C1)C2 (centres unmarked) [Example 110, 2-[6-[[6-(trifluoromethyl)-3-pyridyl]methyl]-2-azaspiro[3.4]octane-2-carbonyl]-7-oxa-2,5-diazaspiro[3.4]octan-6-one] | 0.24 | 
24 | O=C1COCC2(CN(C(=O)N3CC4(CC(Cc5ccc(OC(F)(F)F)cn5)C4)C3)C2)N1 [Example 177, 2-[6-[[5-(trifluoromethoxy)-2-pyridyl]methyl]-2-azaspiro[3.3]heptane-2-carbonyl]-8-oxa-2,5-diazaspiro[3.5]nonan-6-one] | 2.01 | 
25 | O=C1NC2(CCO1)CN(C(=O)N1CCC3(CC1)CN(Cc1ccc(C(F)(F)F)cc1F)C3)C2 [Example 91, 2-[2-[2-fluoro-4-(trifluoromethyl)benzyl]-2,7-diazaspiro[3.5]nonane-7-carbonyl]-7-oxa-2,5-diazaspiro[3.5]nonan-6-one] | 635 | 
26 | Cc1nc(C(F)(F)F)c(CN2CC3(C2)CN(C(=O)N2CC4(CCC(=O)N4)C2)C3)s1 [Example 343, 2-[6-[[2-methyl-4-(trifluoromethyl)thiazol-5-yl]methyl]-2,6-diazaspiro[3.4]heptane-2-carbonyl]-2,5-diazaspiro[3.4]octan-6-one] | 1800 | 
27 | CS(=O)(=O)c1ccc(C2CC3(C2)CN(C(=O)N2CC4(COC(=O)N4)C2)C3)cc1 [Example 124, 2-[6-(4-mesylphenyl)-2-azaspiro[3.3]heptane-2-carbonyl]-7-oxa-2,5-diazaspiro[3.4]octan-6-one] | 4.54 | 
28 | O=C1COCC2(CN(C(=O)N3CC4(CCN(Cc5ccc(S(=O)(=O)C(F)(F)F)cc5)CC4)C3)C2)N1 [Example 83, 2-[7-(4-triflylbenzyl)-2,7-diazaspiro[3.5]nonane-2-carbonyl]-8-oxa-2,5-diazaspiro[3.5]nonan-6-one] | 24.2 | 
29 | O=C1CCC2(CN(C(=O)N3CC4(CC(Cc5cc(C(F)(F)F)n[nH]5)C4)C3)C2)N1 [Example 220, 2-[6-[[3-(trifluoromethyl)-1H-pyrazol-5-yl]methyl]-2-azaspiro[3.3]heptane-2-carbonyl]-2,5-diazaspiro[3.4]octan-6-one] | 4.18 | 
30 | O=C1CCC2(CN(C(=O)N3CC4(CC(Cc5cnc(C(F)(F)F)nc5)C4)C3)C2)N1 [Example 11, 2-[6-[[2-(trifluoromethyl)pyrimi-din-5-y1]methyl]-2-azaspiro[3.3]heptane-2-carbonyl]-2,5-diazaspiro[3.4]octan-6-one] | 31.2 | 
31 | N#Cc1cc(CC2CC3(C2)CN(C(=O)N2CC4(CCCC(=O)N4)C2)C3)ccc1C(F)(F)F [Example 271, 5-[[2-(6-oxo-2,5-diazaspiro[3.5]nonane-2-carbonyl)-2-azaspiro[3.3]heptan-6-yl]methyl]-2-(trifluoromethyl)benzoni-trile] | 31.6 | 
32 | O=C1COCC2(CN(C(=O)N3CC4(CC(Cc5ncc(F)cc5Cl)C4)C3)C2)N1 [Example 176, 2-[6-[(3-chloro-5-fluoro-2-pyridyl)methyl]-2-azaspiro[3.3]heptane-2-carbonyl]-8-oxa-2,5-diazaspiro[3.5]nonan-6-one] | 3 | 
